Target: T1, human TGR5 (Homo sapiens, UniProt Q8TDU6)
T1 construct: expressed in transfected cells
T1 sequence (Q8TDU6 1-330): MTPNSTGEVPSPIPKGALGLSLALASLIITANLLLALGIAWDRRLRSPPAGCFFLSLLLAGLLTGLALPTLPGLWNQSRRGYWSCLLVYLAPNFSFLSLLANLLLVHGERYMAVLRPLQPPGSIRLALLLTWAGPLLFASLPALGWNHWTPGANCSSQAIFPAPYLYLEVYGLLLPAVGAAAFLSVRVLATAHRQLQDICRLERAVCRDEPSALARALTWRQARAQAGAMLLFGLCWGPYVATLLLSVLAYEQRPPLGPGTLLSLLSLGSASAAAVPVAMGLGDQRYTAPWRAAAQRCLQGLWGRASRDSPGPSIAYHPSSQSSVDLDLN
Experiment: cAMP production assay in HEK293 cells stably expressing TGR5 (LANCE TR-FRET)
Assay type: cell-based
Conditions: 30 minutes stimulation, read-out: cAMP Production in 293-TGR5 Cells EC50
Outline: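 HEK293 cells stably transfected with human TGR5, incubated overnight in DMEM with 0.1% FBS, then given IBMX (1 mM final) and stimulated with compounds for 30 minutes. cAMP measured by LANCE TR-FRET after 1-7 h detection at room temperature. EC50 values reported as ≦10 μM (+) or >10 μM (−).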

Row | SMILES | EC50 [µM]
1 | O=c1c2ccccc2nc(-c2ccc(O)cc2)n1NCc1ccc(Br)cc1 [Example 97, 3-(4-bromobenzylamino)-2-(4-hydroxyphenyl)quinazolin-4(3H)-one] | ≤ 10
2 | O=c1c2cc(O)ccc2nc(-c2ccc(F)cc2)n1NCc1ccc(Cl)cc1 [Example 98, 3-(4-chlorobenzylamino)-2-(4-fluorophenyl)-6-hydroxyquinazolin-4(3H)-one] | ≤ 10
3 | COc1cc(-c2nc3ccccc3c(=O)n2NCc2ccc(Br)cc2)ccc1O [Example 99, 3-(4-bromobenzylamino)-2-(4-hydroxy-3-methoxyphenyl)quinazolin-4(3H)-one] | ≤ 10
4 | COc1cc(-c2nc3ccccc3c(=O)n2NCc2ccc(Cl)cc2)ccc1O [Example 100, 3-(4-chlorobenzylamino)-2-(4-hydroxy-3-methoxyphenyl)quinazolin-4(3H)-one] | ≤ 10
5 | O=C(O)c1ccc(CNn2c(-c3ccccc3F)nc3ccccc3c2=O)cc1 [Example 101, 4-((2-(2-fluorophenyl)-4-oxoquinazolin-3(4H)-ylamino)methyl)benzoic acid] | > 10
6 | O=c1c2cc(F)ccc2nc(-c2cccc(F)c2)n1NCc1ccccc1 [Example 103, 3-(benzylamino)-6-fluoro-2-(3-fluorophenyl)quinazolin-4(3H)-one] | ≤ 10
7 | O=c1c2ccccc2nc(-c2ccccc2)n1NCc1ccc(Br)cc1 [Example 104, 3-(4-bromobenzylamino)-2-phenylquinazolin-4(3H)-one] | ≤ 10
8 | O=c1c2ccccc2nc(-c2cccc(F)c2)n1NCc1ccc(Br)cc1 [Example 105, 3-(4-bromobenzylamino)-2-(3-fluorophenyl)quinazolin-4(3H)-one] | ≤ 10
9 | O=c1c2cc(F)ccc2nc(-c2cccc(F)c2)n1NCc1ccc(Br)cc1 [Example 106, 3-(4-bromobenzylamino)-6-fluoro-2-(3-fluorophenyl)quinazolin-4(3H)-one] | ≤ 10
10 | O=c1c2ccccc2nc(-c2cccc(F)c2)n1NCc1ccc(F)c(C(F)(F)F)c1 [Example 107, 3-(4-fluoro-3-(trifluoromethyl)benzylamino)-2-(3-fluorophenyl)quinazolin-4(3H)— one] | ≤ 10
11 | O=c1c2ccc(F)cc2nc(-c2ccc(F)cc2)n1NCc1ccc(Cl)cc1 [Example 108, 3-(4-chlorobenzylamino)-7-fluoro-2-(4-fluorophenyl)quinazolin-4(3H)-one] | ≤ 10

Results, then the compound that gave them:

Row | EC50 [µM] | SMILES
12 | ≤ 10 | Cc1ccc(-c2nc3ccccc3c(=O)n2NCc2ccc(Br)cc2)cc1Cl [Example 109, 3-(4-bromobenzylamino)-2-(3-chloro-4-methylphenyl)quinazolin-4(3H)-one]
13 | ≤ 10 | Cc1ccc(-c2nc3ccccc3c(=O)n2NCc2ccc(Cl)cc2)cc1Cl [Example 110, 2-(3-chloro-4-methylphenyl)-3-(4-chlorobenzylamino)quinazolin-4(3H)-one]
14 | ≤ 10 | Cc1cccc2nc(-c3ccc(F)cc3)n(NCc3ccc(Br)cc3)c(=O)c12 [Example 111, 3-(4-bromobenzylamino)-2-(4-fluorophenyl)-5-methylquinazolin-4(3H)-one]
15 | ≤ 10 | O=c1c2c(F)cccc2nc(-c2ccc(F)cc2)n1NCc1ccc(Br)cc1 [Example 112]
16 | ≤ 10 | O=c1c2cccc(O)c2nc(-c2ccc(F)cc2)n1NCc1ccc(Br)cc1 [Example 113, 3-(4-bromobenzylamino)-2-(4-fluorophenyl)-8-hydroxyquinazolin-4(3H)-one]
17 | ≤ 10 | O=c1c2cccc(O)c2nc(-c2ccc(F)cc2)n1NCc1ccc(Cl)cc1 [Example 114, 3-(4-chlorobenzylamino)-2-(4-fluorophenyl)-8-hydroxyquinazolin-4(3H)-one]
18 | ≤ 10 | COc1ccc(-c2nc3ccccc3c(=O)n2NCc2ccc(Br)cc2)cn1 [Example 116, 3-(4-bromobenzylamino)-2-(6-methoxypyridin-3-yl)quinazolin-4(3H)— one]
19 | ≤ 10 | O=c1c2ccccc2nc(-c2ccc(O)nc2)n1NCc1ccc(Br)cc1 [Example 117, 3-(4-bromobenzylamino)-2-(6-hydroxypyridin-3-yl)quinazolin-4(3H)-one]
20 | ≤ 10 | COc1ccc(-c2nc3ccccc3c(=O)n2NCc2ccc(Br)cc2)cc1O [Example 118, 3-(4-bromobenzylamino)-2-(3-hydroxy-4-methoxyphenyl)quinazolin-4(3H)-one]
21 | ≤ 10 | COc1ccc(-c2nc3ccccc3c(=O)n2NCc2ccc(Cl)cc2)cc1O [Example 119, 3-(4-chlorobenzylamino)-2-(3-hydroxy-4-methoxyphenyl)quinazolin-4(3H)— one]

From patent US20090035306A1 (KALYPSYS, INC., priority 2006, published 2009)
